Test results published in publication PMC8037182, “Solvothermal Synthesis of Multiple Dihydropyrimidinones at a Time as Inhibitors of Eg5” (Molecules, 2021).

Columns and labels:
Hela cell line = assay: Cytotoxicity MTS assay, Hela cell line; type: cell-based; conditions: for OD490 value, Mean / OD490 value, Well 1 / OD490 value, Well 2 / OD490 value, Well 3: Hela cell line, MTS;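 as to OD490 value, Mean: blank control wells received 0.025% DMSO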;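 as to OD490 value, Well 1: blank control wells received 0.025% DMSO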;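 as to OD490 value, Well 2: blank control wells received 0.025% DMSO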;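 as to OD490 value, Well 3: blank control wells received 0.025% DMSO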
Procedure, shortened: (§1)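 MTS antiproliferation; 1000 cells/well, 24 h pre-incubation; compound 0.5–100 µM final, 24 h exposure; vehicle 0.025% DMSO; monastrol positive control; MTS 2 h, 37 °C, 5% CO2; A490; IC50 by non-linear regression of % viability vs concentration; three independent duplicate runs.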

L929 cell line = assay: Cytotoxicity MTS assay, L929 cell line; type: cell-based; conditions: for OD490 values, Mean / OD490 values, Well 1 / OD490 values, Well 2 / OD490 values, Well 3: L929 cell line
Procedure, shortened: as §1

Question: What does the source list for `CCOC(=O)c1[nH]c(C2NC(=S)NC(C)=C2C(=O)OC)c(C(=O)OCC)c1C` (centres unmarked) [D12]?
Answer: OD490 value, Mean (Hela cell line; 0.5μM, first assay): 2.4447; OD490 value, Well 1 (Hela cell line; 0.5μM, first assay): 2.5235; OD490 value, Well 2 (Hela cell line; 0.5μM, first assay): 2.4821; OD490 value, Well 3 (Hela cell line; 0.5μM, first assay): 2.3285; OD490 value, Mean (Hela cell line; 0.5μM, second assay): 2.5426; OD490 value, Well 1 (Hela cell line; 0.5μM, second assay): 2.5366; OD490 value, Well 2 (Hela cell line; 0.5μM, second assay): 2.2547; OD490 value, Well 3 (Hela cell line; 0.5μM, second assay): 2.8365; OD490 value, Mean (Hela cell line; 0.5μM, third assay): 2.6167; OD490 value, Well 1 (Hela cell line; 0.5μM, third assay): 2.6535; OD490 value, Well 2 (Hela cell line; 0.5μM, third assay): 2.5478; OD490 value, Well 3 (Hela cell line; 0.5μM, third assay): 2.6489; OD490 value, Mean (Hela cell line; 1μM, first assay): 2.3871; OD490 value, Well 1 (Hela cell line; 1μM, first assay): 2.4815; OD490 value, Well 2 (Hela cell line; 1μM, first assay): 2.2707; OD490 value, Well 3 (Hela cell line; 1μM, first assay): 2.4090; OD490 value, Mean (Hela cell line; 1μM, second assay): 2.5625; OD490 value, Well 1 (Hela cell line; 1μM, second assay): 2.5302; OD490 value, Well 2 (Hela cell line; 1μM, second assay): 2.5698; OD490 value, Well 3 (Hela cell line; 1μM, second assay): 2.5874; OD490 value, Mean (Hela cell line; 1μM, third assay): 2.6475; OD490 value, Well 1 (Hela cell line; 1μM, third assay): 2.5896; OD490 value, Well 2 (Hela cell line; 1μM, third assay): 2.6985; OD490 value, Well 3 (Hela cell line; 1μM, third assay): 2.6543; OD490 value, Mean (Hela cell line; 10μM, first assay): 2.6552; OD490 value, Well 1 (Hela cell line; 10μM, first assay): 2.5708; OD490 value, Well 2 (Hela cell line; 10μM, first assay): 2.6029; OD490 value, Well 3 (Hela cell line; 10μM, first assay): 2.7920; OD490 value, Mean (Hela cell line; 10μM, second assay): 2.5779; OD490 value, Well 1 (Hela cell line; 10μM, second assay): 2.5898; OD490 value, Well 2 (Hela cell line; 10μM, second assay): 2.5741; OD490 value, Well 3 (Hela cell line; 10μM, second assay): 2.5698; OD490 value, Mean (Hela cell line; 10μM, third assay): 2.6011; OD490 value, Well 1 (Hela cell line; 10μM, third assay): 2.5898; OD490 value, Well 2 (Hela cell line; 10μM, third assay): 2.6635; OD490 value, Well 3 (Hela cell line; 10μM, third assay): 2.5501; OD490 value, Mean (Hela cell line; 25μM, first assay): 2.2305; OD490 value, Well 1 (Hela cell line; 25μM, first assay): 2.2367; OD490 value, Well 2 (Hela cell line; 25μM, first assay): 2.1978; OD490 value, Well 3 (Hela cell line; 25μM, first assay): 2.2571; OD490 value, Mean (Hela cell line; 25μM, second assay): 2.5197; OD490 value, Well 1 (Hela cell line; 25μM, second assay): 2.5698; OD490 value, Well 2 (Hela cell line; 25μM, second assay): 2.5525; OD490 value, Well 3 (Hela cell line; 25μM, second assay): 2.4369; OD490 value, Mean (Hela cell line; 25μM, third assay): 2.6373; OD490 value, Well 1 (Hela cell line; 25μM, third assay): 2.6859; OD490 value, Well 2 (Hela cell line; 25μM, third assay): 2.5363; OD490 value, Well 3 (Hela cell line; 25μM, third assay): 2.6896; OD490 value, Mean (Hela cell line; 50μM, first assay): 2.5183; OD490 value, Well 1 (Hela cell line; 50μM, first assay): 2.3673; OD490 value, Well 2 (Hela cell line; 50μM, first assay): 2.6584; OD490 value, Well 3 (Hela cell line; 50μM, first assay): 2.5291; OD490 value, Mean (Hela cell line; 50μM, second assay): 2.5474; OD490 value, Well 1 (Hela cell line; 50μM, second assay): 2.4652; OD490 value, Well 2 (Hela cell line; 50μM, second assay): 2.5569; OD490 value, Well 3 (Hela cell line; 50μM, second assay): 2.6201; OD490 value, Mean (Hela cell line; 50μM, third assay): 2.5184; OD490 value, Well 1 (Hela cell line; 50μM, third assay): 2.4365; OD490 value, Well 2 (Hela cell line; 50μM, third assay): 2.5532; OD490 value, Well 3 (Hela cell line; 50μM, third assay): 2.5654; OD490 value, Mean (Hela cell line; 100μM, first assay): 2.3367; OD490 value, Well 1 (Hela cell line; 100μM, first assay): 2.4110; OD490 value, Well 2 (Hela cell line; 100μM, first assay): 2.1799; OD490 value, Well 3 (Hela cell line; 100μM, first assay): 2.4192; OD490 value, Mean (Hela cell line; 100μM, second assay): 2.4086; OD490 value, Well 1 (Hela cell line; 100μM, second assay): 2.3674; OD490 value, Well 2 (Hela cell line; 100μM, second assay): 2.4214; OD490 value, Well 3 (Hela cell line; 100μM, second assay): 2.4369; OD490 value, Mean (Hela cell line; 100μM, third assay): 2.3047; OD490 value, Well 1 (Hela cell line; 100μM, third assay): 2.1753; OD490 value, Well 2 (Hela cell line; 100μM, third assay): 2.3324; OD490 value, Well 3 (Hela cell line; 100μM, third assay): 2.4065; IC50 (Hela cell line; MTS assay, 24 h exposure): > 150 µM; OD490 values, Mean (L929 cell line; 0.5μM, first assay): 1.1913; OD490 values, Well 1 (L929 cell line; 0.5μM, first assay): 1.1038; OD490 values, Well 2 (L929 cell line; 0.5μM, first assay): 1.2202; OD490 values, Well 3 (L929 cell line; 0.5μM, first assay): 1.2500; OD490 values, Mean (L929 cell line; 0.5μM, second assay): 1.4730; OD490 values, Well 1 (L929 cell line; 0.5μM, second assay): 1.5380; OD490 values, Well 2 (L929 cell line; 0.5μM, second assay): 1.4321; OD490 values, Well 3 (L929 cell line; 0.5μM, second assay): 1.4489; OD490 values, Mean (L929 cell line; 0.5μM, third assay): 1.5772; OD490 values, Well 1 (L929 cell line; 0.5μM, third assay): 1.5471; OD490 values, Well 2 (L929 cell line; 0.5μM, third assay): 1.5630; OD490 values, Well 3 (L929 cell line; 0.5μM, third assay): 1.6214; OD490 values, Mean (L929 cell line; 1μM, first assay): 1.1860; OD490 values, Well 1 (L929 cell line; 1μM, first assay): 1.2156; OD490 values, Well 2 (L929 cell line; 1μM, first assay): 1.2049; OD490 values, Well 3 (L929 cell line; 1μM, first assay): 1.1374; OD490 values, Mean (L929 cell line; 1μM, second assay): 1.4734; OD490 values, Well 1 (L929 cell line; 1μM, second assay): 1.5248; OD490 values, Well 2 (L929 cell line; 1μM, second assay): 1.4852; OD490 values, Well 3 (L929 cell line; 1μM, second assay): 1.4101; OD490 values, Mean (L929 cell line; 1μM, third assay): 1.5596; OD490 values, Well 1 (L929 cell line; 1μM, third assay): 1.5474; OD490 values, Well 2 (L929 cell line; 1μM, third assay): 1.5836; OD490 values, Well 3 (L929 cell line; 1μM, third assay): 1.5478; OD490 values, Mean (L929 cell line; 10μM, first assay): 1.1924; OD490 values, Well 1 (L929 cell line; 10μM, first assay): 1.2175; OD490 values, Well 2 (L929 cell line; 10μM, first assay): 1.1577; OD490 values, Well 3 (L929 cell line; 10μM, first assay): 1.2021; OD490 values, Mean (L929 cell line; 10μM, second assay): 1.4056; OD490 values, Well 1 (L929 cell line; 10μM, second assay): 1.3665; OD490 values, Well 2 (L929 cell line; 10μM, second assay): 1.4252; OD490 values, Well 3 (L929 cell line; 10μM, second assay): 1.4252; OD490 values, Mean (L929 cell line; 10μM, third assay): 1.6223; OD490 values, Well 1 (L929 cell line; 10μM, third assay): 1.6874; OD490 values, Well 2 (L929 cell line; 10μM, third assay): 1.5874; OD490 values, Well 3 (L929 cell line; 10μM, third assay): 1.5922; OD490 values, Mean (L929 cell line; 25μM, first assay): 1.1330; OD490 values, Well 1 (L929 cell line; 25μM, first assay): 1.1639; OD490 values, Well 2 (L929 cell line; 25μM, first assay): 1.1385; OD490 values, Well 3 (L929 cell line; 25μM, first assay): 1.0965; OD490 values, Mean (L929 cell line; 25μM, second assay): 1.3592; OD490 values, Well 1 (L929 cell line; 25μM, second assay): 1.4632; OD490 values, Well 2 (L929 cell line; 25μM, second assay): 1.2302; OD490 values, Well 3 (L929 cell line; 25μM, second assay): 1.3841; OD490 values, Mean (L929 cell line; 25μM, third assay): 1.5851; OD490 values, Well 1 (L929 cell line; 25μM, third assay): 1.5924; OD490 values, Well 2 (L929 cell line; 25μM, third assay): 1.5955; OD490 values, Well 3 (L929 cell line; 25μM, third assay): 1.5674; OD490 values, Mean (L929 cell line; 50μM, first assay): 1.0425; OD490 values, Well 1 (L929 cell line; 50μM, first assay): 1.0133; OD490 values, Well 2 (L929 cell line; 50μM, first assay): 1.0567; OD490 values, Well 3 (L929 cell line; 50μM, first assay): 1.0575; OD490 values, Mean (L929 cell line; 50μM, second assay): 1.2636; OD490 values, Well 1 (L929 cell line; 50μM, second assay): 1.2147; OD490 values, Well 2 (L929 cell line; 50μM, second assay): 1.2548; OD490 values, Well 3 (L929 cell line; 50μM, second assay): 1.3214; OD490 values, Mean (L929 cell line; 50μM, third assay): 1.3874; OD490 values, Well 1 (L929 cell line; 50μM, third assay): 1.3352; OD490 values, Well 2 (L929 cell line; 50μM, third assay): 1.3582; OD490 values, Well 3 (L929 cell line; 50μM, third assay): 1.4687; OD490 values, Mean (L929 cell line; 100μM, first assay): 0.9106; OD490 values, Well 1 (L929 cell line; 100μM, first assay): 0.8752; OD490 values, Well 2 (L929 cell line; 100μM, first assay): 0.9980; OD490 values, Well 3 (L929 cell line; 100μM, first assay): 0.8587; OD490 values, Mean (L929 cell line; 100μM, second assay): 1.0255; OD490 values, Well 1 (L929 cell line; 100μM, second assay): 0.9632; OD490 values, Well 2 (L929 cell line; 100μM, second assay): 1.0012; OD490 values, Well 3 (L929 cell line; 100μM, second assay): 1.1122; OD490 values, Mean (L929 cell line; 100μM, third assay): 1.3052; OD490 values, Well 1 (L929 cell line; 100μM, third assay): 1.3254; OD490 values, Well 2 (L929 cell line; 100μM, third assay): 1.2547; OD490 values, Well 3 (L929 cell line; 100μM, third assay): 1.3354; IC50 (L929 cell line; MTS assay, 24 h exposure, ordinary fibroblast, not cancer cells): 121 µM
